In ChEMBL document CHEMBL3352810, “Synthesis and evaluation of novel alkannin and shikonin oxime derivatives as potent antitumor agents” (Bioorg Med Chem Lett, 2014):
pIC50: −log10 of the molar value.

What was measured:
DU-145 = experiment: Cytotoxicity against human DU145 cells by MTT assay; type: functional, cell-based
MCF7 [1] = experiment: Cytotoxicity against human MCF7 cells by MTT assay; type: functional, cell-based
K562 = experiment: Cytotoxicity against human K562 cells by MTT assay; type: functional, cell-based
[2] = Cytotoxicity against human skin fibroblast cells by MTT assay; type: cell-based
MCF7 [3] = experiment: Induction of ROS level in human MCF7 cells by flow cytometry relative to control; type: functional
[4] = Alkylation of the compound assessed as Michael addition after 15 mins; type: physicochemical
[5] = Alkylation of the compound assessed as bioreductive alkylation after 15 mins; type: physicochemical

SMILES	pIC50 (DU-145)	pIC50 (MCF7 [1])	pIC50 (K562)	pIC50 [2]	Activity (MCF7 [3]) [%]	Activity [4]	Activity [5]
CC(C)=CC[C@H](O)C1=CC(=O)c2c(O)ccc(O)c2C1=O [ALKANNIN]	4.70	5.62	5.89	5.82	–	–	–
CC(C)=CC[C@@H](OC(=O)C=C(C)C)C1=CC(=O)c2c(O)ccc(O)c2C1=O [DIMETHYLACRYLSHIKONIN]	–	–	–	–	414.8	Not Active	Not Active
CC(C)=CC[C@@H](O)C1=CC(=O)c2c(O)ccc(O)c2C1=O [SHIKONIN]	4.80	5.74	6.15	5.92	–	–	–
